Data on five compounds can be found in US20250295679A1, “Compositions and Dosage Forms for Treatment of HPV Infection and HPV-Induced Neoplasia” (priority 2022, published 2025).

Like-named read-outs stand apart in the source and are kept apart here.

One series has as its system HEK293 cells. As to the kind of experiment: In vitro cytotoxicity, XTT, five days. The procedure:
(§1) Three compounds (Compound I, Compound II and Compound III) were solubilized at 40 mM in DMSO and stored at −20° C. The test compounds were evaluated using a high test concentration of 50 μM. Serial half-logarithmic dilutions were performed for the in vitro cytotoxicity assays.
(§2) Cells listed in Table 70 were enumerated by Trypan Blue Dye exclusion method and seeded in the interior wells of a 96 well flat bottom microtiter plate at 100 μL/well. Proliferating cells were incubated overnight at 37° C./5% CO2 to allow the cells to adhere to the plates at approximately 70% confluency. Tissue culture medium was removed and replaced with 100 μL/well of fresh medium. One-hundred microliters (100 μL) of each compound at six concentrations was transferred to the 96-well plate containing the cells in triplicate. Table 70 lists the cell line, type of cell, source of cell stock, base tissue culture medium supplemented with 10% fetal bovine serum, 2 mM L-glutamine, 100 U/mL penicillin and 100 μg/mL streptomycin, and microtiter plate seeding density.
(§3) Following incubation at 37° C. in a 5% CO2 incubator for five days, the test plates were stained with the tetrazolium dye XTT (2,3-bis(2-methoxy-4-nitro-5-sulfopheny1)-5-[(phenylamino)carbonyl]-2H-tetrazolium hydroxide). XTT-tetrazolium was metabolized by the mitochondrial enzymes of metabolically active cells to a soluble formazan product. XTT solution was prepared daily as a stock of 1 mg/ml in RPM11640. Phenazine methosulfate (PMS) solution was prepared at 0.15 mg/ml in PBS and stored in the dark at −20° C. XTT/PMS stock was prepared immediately before use by adding 40 μL of PMS per ml of XTT solution. Fifty microliters of XTT/PMS were added to each well of the plate and the plate was reincubated for 4 hours at 37° C. Plates were sealed with adhesive plate sealers and shaken gently or inverted several times to mix the soluble formazan product and the plate was read spectrophotometrically at 450/650 nm with a Molecular Devices Vmax plate reader.
(§4) Microsoft Excel 2010 was used to analyze and graph the raw data. […] Raw data for cytotoxicity with a graphic representation of the data are provided in a printout summarizing the compound effect on cell viability.
(§5) Compounds I, II, and III were evaluated for cytotoxicity to proliferating Hs27, HeLa, C33A and HEK293 cells by measuring cell viability using XTI tetrazolium dye following five days in culture (Table 71).

Series [1] is described as follows: Hygroscopicity by DVS at 25° C. The settings on record: for XRPD after DVS test: after humidity cycle 40-0-95-0-40% RH, 25° C. The class given is physicochemical. As for the experimental part: Hygroscopicity was investigated by DVS at 25° C., using the following method: • Method: 40-0-95-0-40% RH, dm/dt=0.002
The nature of series [2]: Solubility in buffers, water and simulated vaginal fluid at 37° C. The settings on record: 37° C. As for the experimental part:
About 4 mg of Compound I Pattern 1 was added into 2 mL of buffer solution.
(§6) Solubility was tested in five media, pH 3.0 citrate buffer, pH 4.5 acetate buffer, pH 6.8 phosphate buffer, water, simulated vaginal fluid (pH 4.2) at 37° C. for 0.5 h and 2 h.
The salt amount used is equivalent to 10 mg anhydrous free base. […] The obtained clear solutions were analyzed by pH meter for pH, and solubility was determined by observation.
as §6

Series [3] is described as follows: Tablet stability study (storage, purity by HPLC). It is filed as physicochemical. The settings on record: for Degradation of tablets: within one month at 40° C. and 75% RH. The procedure: Tablets were prepared using the excipients and excipient ratios shown in the first column of the following tables. The tablets were then stored under the conditions indicated and periodically sampled and tested for purity by HPLC.

Series [4] in a line: Behavior under compression, grinding and granulation simulation (XRPD). It is filed as physicochemical. The procedure:
About 10 mg of Compound I monofumarate Pattern 1 (Example 7) was compressed for 5 minutes at 10 MPa with a hydraulic press. XRPD characterization was performed to investigate the polymorphic behavior under compression.
About 10 mg of Compound I monofumarate Pattern 1 (Example 7) was ground manually with a mortar and pestle for 5 min. Form transformation and degree of crystallinity was evaluated by XRPD.
Water or ethanol was added drop wise to about 10 mg of Compound I monofumarate Pattern 1 (Example 7) until solids were wetted sufficiently. The samples were ground manually with a mortar and pestle for 3 minutes. Samples are dried under ambient condition for 10 min.
Form transformation and degree of crystallinity were evaluated by XRPD.

Series [5] in a line: Bulk (accelerated) stability, one week, HPLC and XRPD. The following applies: initial chemical purity before storage.
Protocol: Bulk stability: Accelerated stability experiments were conducted at 25° C./92% RH and 40° C./75% RH in an open container, 60° C. in a tight container for one week.
Samples were characterized by XRPD and HPLC and inspected for color change.
Accelerated stability experiments were conducted at 25° C./92% RH in an open container, at 40° C./75% RH in an open container, and at 60° C. in a tight container for one week.
In the next series the test system is C33A cells. As to the kind of experiment: In vitro cytotoxicity, XTT, five days. The settings on record: read-out: C33A CC50, proliferating C33A cells. As for the experimental part:
as §1, §2, §3, §4, §5

The next series relates to HeLa cells. The procedure:
as §1, §2, §3, §4, §5

A further series deals with Hs27 cells. As for the experimental part:
as §1, §2, §3, §4, §5

[6] abbreviates: solution in pH 3.0 100 mM citrate buffer.
[7] abbreviates: solution in pH 4.5 50 mM acetate buffer.
The mark [8] stands for this setting: solution in pH 6.8 50 mM phosphate buffer.
Where [9] appears, read: solution in simulated vaginal fluid (pH adjusted with 0.2N NaOH).
Setting [10] is: ground manually with mortar and pestle for 5 min.

The term CC50 denotes the concentration giving 50% cytotoxicity. Take `CCOC(=O)C(C)NP(=O)(COCCn1cnc2c(OC)nc(N)nc21)OCc1ccccc1` (mixture of isomers) [AB12280]: the CC50 in the series on HEK293 cells (read-out: HEK293 CC50, proliferating HEK293 cells, XTT, five days) is under 0.16 µM.
With `CCOC(=O)[C@H](C)NP(=O)(COCCn1cnc2c(OC)nc(N)nc21)OCc1ccccc1.O=C(O)/C=C/C(=O)O` (mixture of isomers) [Compound I monofumarate, (±)-(2S)-ethyl-2-((((2-(2-amino-6-methoxy-9H-purin-9-yl)-ethoxy)-methyl)-(benzyloxy)-phosphoryl)-amino)-propionate monofumarate], the “Desorption (%) Cycle 1” value in series [1] (0% RH, DVS 25° C.) is 0.49%; in series [1] (10% RH, DVS 25° C.), 0.62%; in series [1] (20% RH, DVS 25° C.) it was 0.71%; in series [1] (30% RH, DVS 25° C.), 0.81%; in series [1] (40% RH, DVS 25° C.), 0.93%. For the same compound, the “Desorption (%) Cycle 2” value in [1] (0% RH, DVS 25° C.) was 0.09%; in series [1] (10% RH, DVS 25° C.), 0.15%; in series [1] (20% RH, DVS 25° C.), 0.35%; in series [1] (30% RH, DVS 25° C.) it was 0.47%; in series [1] (40% RH, DVS 25° C.) it was 0.56%; in [1] (50% RH, DVS 25° C.) it was 0.67%. In addition, the “Desorption (%) Cycle 2” value worked out at 0.85% in [1] (60% RH, DVS 25° C.); 1.04% in [1] (70% RH, DVS 25° C.); 1.30% in series [1] (80% RH, DVS 25° C.); 1.84% in [1] (90% RH, DVS 25° C.); 2.89% in series [1] (95% RH, DVS 25° C.). In addition, the “Sorption (%) Cycle 1” value in [1] (0% RH, DVS 25° C.) came out at 0.49%; in [1] (10% RH, DVS 25° C.), 0.56%; in series [1] (20% RH, DVS 25° C.), 0.66%; in [1] (30% RH, DVS 25° C.), 0.76%; in series [1] (40% RH, DVS 25° C.) it was 0.86%; in [1] (50% RH, DVS 25° C.), 0.71%. The “Sorption (%) Cycle 1” value in [1] (60% RH, DVS 25° C.) came out at 0.85%; in series [1] (70% RH, DVS 25° C.), 1.02%; in series [1] (80% RH, DVS 25° C.), 1.27%; in [1] (90% RH, DVS 25° C.), 1.78%; in series [1] (95% RH, DVS 25° C.), 2.89%. In addition, the “Sorption (%) Cycle 2” value in series [1] (0% RH, DVS 25° C.) is recorded as 0.09%; in series [1] (10% RH, DVS 25° C.) it was 0.18%; in series [1] (20% RH, DVS 25° C.), 0.27%; in [1] (30% RH, DVS 25° C.), 0.37%; in series [1] (40% RH, DVS 25° C.), 0.47%. Besides, the “XRPD after DVS test” value in series [1] is listed as “No form change,”. Besides, in series [1] (up to / in 95% RH, DVS 25° C.), the Water uptake result is “about 2.9%”. Further, the “pH at 2 hrs” value in series [2] (setting [6]) was “(3.05)”; in series [2] (setting [7]), “(4.36)”; in [2] (setting [8]) it was “(6.49)”; in series [2] (setting [9]), “(5.39)”; in [2] (solution in water), “(3.11)”. Also, the “Degradation of tablets compared with tablets produced from Compound I” value in series [3] (range of different formulations, purity by HPLC) was “degraded less”. Besides, in series [3], the Degradation of tablets result was “far less degradation”. Further, in series [4] (compressed 5 minutes at 10 MPa), the “Form change by XRPD under compression” value is reported as “no form change was observed”. For the same compound, the “Crystallinity by XRPD after grinding” value in [4] (setting [10]) is “crystallinity slightly decreased”. Further, in series [4] (setting [10]), the “Form change by XRPD after grinding” value was “no form change was observed”. In series [4] (wetted with water or ethanol, ground 3 minutes, dried), the “Form change by XRPD after granulation simulation” value is reported as “neither in ethanol, nor in water form change was observed”. Moreover, the “HPLC purity, Initial” value in [5] (listed as Compound I monofumarate Pattern 1, monofumarate) was determined as 98.6%.
On to `CCOC(=O)[C@H](C)N[P@](=O)(COCCn1cnc2c(OC)nc(N)nc21)OCc1ccccc1` (single isomer, unassigned; isomer 1) [AB12280 Isomer 1], for which the CC50 was under 0.16 µM in the series on HEK293 cells, 0.2 µM with C33A cells, 15.1 µM in the series on HeLa cells and 23.2 µM in the series with Hs27 cells.
In the case of `CCOC(=O)[C@H](C)N[P@@](=O)(COCCn1cnc2c(OC)nc(N)nc21)OCc1ccccc1` (single isomer, unassigned; isomer 2) [AB12280 Isomer 2], the CC50 in the series on HEK293 cells was under 0.16 µM; in the series on C33A cells it was under 0.16 µM; in the series with HeLa cells, 16.9 µM; in the series with Hs27 cells, 7.62 µM.
For the compound `CCOC(=O)[C@H](C)NP(=O)(COCCn1cnc2c(OC)nc(N)nc21)OCc1ccccc1` (stereo partly drawn) [Compound I, ethyl(((2-(2-amino-6-methoxy-9H-purin-9-yl)ethoxy)methyl)(benzyloxy)-phosphoryl)-L-alaninate], the “Desorption (%) Cycle 1” value in series [1] (0% RH, DVS 25° C.) worked out at 0.00%; in series [1] (10% RH, DVS 25° C.) it was 0.11%; in [1] (20% RH, DVS 25° C.), 0.23%; in series [1] (30% RH, DVS 25° C.), 0.47%; in [1] (40% RH, DVS 25° C.), 0.60%. Further, the “Desorption (%) Cycle 2” value was 0.19% in [1] (0% RH, DVS 25° C.); 0.37% in series [1] (10% RH, DVS 25° C.); 0.57% in [1] (20% RH, DVS 25° C.); 0.83% in series [1] (30% RH, DVS 25° C.); 1.09% in series [1] (40% RH, DVS 25° C.); 1.48% in [1] (50% RH, DVS 25° C.). In addition, the “Desorption (%) Cycle 2” value in series [1] (60% RH, DVS 25° C.) was 1.96%; in series [1] (70% RH, DVS 25° C.), 2.78%; in [1] (80% RH, DVS 25° C.) it was 4.33%; in [1] (90% RH, DVS 25° C.), 9.10%; in [1] (95% RH, DVS 25° C.), 14.32%. For the same compound, the “Sorption (%) Cycle 1” value was found to be 0.00% in series [1] (0% RH, DVS 25° C.); 0.08% in [1] (10% RH, DVS 25° C.); 0.17% in series [1] (20% RH, DVS 25° C.); 0.28% in [1] (30% RH, DVS 25° C.); 0.41% in series [1] (40% RH, DVS 25° C.); 0.61% in series [1] (50% RH, DVS 25° C.). Further, the “Sorption (%) Cycle 1” value amounted to 0.85% in series [1] (60% RH, DVS 25° C.); 1.14% in series [1] (70% RH, DVS 25° C.); 1.64% in [1] (80% RH, DVS 25° C.); 4.27% in series [1] (90% RH, DVS 25° C.); 14.32% in series [1] (95% RH, DVS 25° C.). Also, the “Sorption (%) Cycle 2” value in [1] (0% RH, DVS 25° C.) is recorded as 0.19%; in series [1] (10% RH, DVS 25° C.) it was 0.22%; in [1] (20% RH, DVS 25° C.) it was 0.30%; in series [1] (30% RH, DVS 25° C.) it was 0.44%; in series [1] (40% RH, DVS 25° C.) it was 0.62%. Moreover, the “XRPD after DVS test” value in series [1] is “No form change,”. Moreover, the “pH at 2 hrs” value in series [2] (setting [6]) is on record as “(2.98)”; in series [2] (setting [7]), “(4.50)”; in series [2] (setting [8]), “(6.81)”; in [2] (setting [9]) it was “(5.53)”; in series [2] (solution in water) it was “(7.55)”. Also, the Degradation of tablets result in series [3] was “substantially degrade”. In series [5] (listed as Compound I free base Pattern 1), the “HPLC purity, Initial” value was found to be 98.7%.
